# Laboratory results from patent publication US12084473B2, “β-D-2′-deoxy-2′-α-fluoro-2′-β-C-substituted-2-modified-N6-substituted purine nucleotides for HCV treatment” (Atea Pharmaceuticals, Inc., priority 2015, dated 2024).
# Read-outs that look alike come from different tables or passages of the source.
# Tests used:
# human hepatocytes = experiment: Metabolic studies in primary hepatocytes; format: in vitro ADME; conditions: 10 μM, 2-24 hr
# Description: The metabolism of compounds 25, 27 and 5-2, at a concentration of 10 μM, were investigated in fresh primary cultures of human, dog and mouse hepatocytes. Plated hepatocytes from humans (XenoTech, mixed gender, pooled from 10 donors), male Beagle dog (BioreclamationIVT), and male ICR/CD-1 mice (BioreclamationIVT, 8 donors) in 6-well plates with matrigel overlay were incubated in singlet with 10 μM TA. After 2, 4, 6, 8 or 24 hr, intracellular levels of nucleotide prodrugs and their potential metabolites (prodrugs, monophosphates, triphosphates and nucleosides) were quantitated by LC-MS/MS. Concentrations below the lower limit of quantitation (1.5 pmol/10^6 cells for prodrugs, monophosphates and nucleosides and 12 pmol/10^6 cells for triphosphates) were extrapolated from the standard curves.
# [1] = system: HCV Genotype 3a-2, NS5B Mutation none; experiment: microbe, parasite or virus in culture; format: cell-based
# Description: (§1) Various patient-derived HCV genotypes containing wild-type and resistance-associated variants were used to determine their relative replication sensitivity to test compounds. Replicon resistance test vectors (RTVs) containing the NS5B genomic regions were prepared using viral RNA isolated from plasma of HCV patients. Each NS5B region was amplified by reverse-transcription polymerase chain reaction and cloned into an HCV replicon RTV which was then transferred by electroporation into Huh-7 cells.
# [2] = system: HCV Genotype 4a, NS5B Mutation none; experiment: microbe, parasite or virus in culture; format: cell-based
# Description: as §1
# [3] = system: HCV Genotype 4d, NS5B Mutation none; experiment: microbe, parasite or virus in culture; format: cell-based
# Description: as §1
# [4] = system: HCV Genotype 2b, NS5B Mutation none; experiment: microbe, parasite or virus in culture; format: cell-based
# Description: as §1
# [5] = system: HCV Genotype 2a, NS5B Mutation none; experiment: microbe, parasite or virus in culture; format: cell-based
# Description: as §1
# [6] = system: HCV Genotype 1a, NS5B Mutation L159F; experiment: microbe, parasite or virus in culture; format: cell-based
# Description: as §1
# [7] = system: HCV Genotype 1a, NS5B Mutation none; experiment: microbe, parasite or virus in culture; format: cell-based
# Description: as §1
# [8] = system: HCV Genotype 1b, NS5B Mutation C316N; experiment: microbe, parasite or virus in culture; format: cell-based
# Description: as §1
# [9] = system: HCV Genotype 3a-1, NS5B Mutation none; experiment: microbe, parasite or virus in culture; format: cell-based
# Description: as §1
# [10] = system: HCV Genotype 1a, NS5B Mutation L159F and S282T; experiment: microbe, parasite or virus in culture; format: cell-based
# Description: as §1
# [11] = system: HCV Genotype 1b, NS5B Mutation none; experiment: microbe, parasite or virus in culture; format: cell-based
# Description: as §1
# [12] = system: HCV genotype 1b luciferase reporter replicon; experiment: microbe, parasite or virus in culture; format: cell-based; conditions: Hepatitis C virus, HuH-7-Luc/Neo-ET, 72 h, read-out: HCV Replicon EC50/EC95: EC50
# [13] = system: HCV genotype 1b luciferase reporter replicon; experiment: microbe, parasite or virus in culture; format: cell-based
# HCV wild type replicon = experiment: microbe, parasite or virus in culture; format: cell-based; conditions: NS5B Mutation None
# Description: (§2) A transient transfection assay was performed to determine the sensitivity of the […] of HCV to test compounds. Huh-7 cells were electroporated in the presence of RNA transcribed from wild type or S282T HCV replicon plasmids from the T7 promoter. The transfected cells were seeded in to 96-well plates at 7.5×10^3 cells per well in Dulbecco's Modified Eagle's medium. After 24 hr of incubation, medium was removed and replaced with fresh medium containing no or various concentrations of test compounds. Following an additional 96-hr incubation, the anti-HCV activity was measured by luciferase endpoint with Britelite™ Plus luminescence reporter gene kit (Perkin Elmer, Shelton, CT). Duplicate plates were treated and incubated in parallel for assessment of cellular toxicity by staining with the tetrazolium dye XTT.
# HCV S282T replicon = experiment: microbe, parasite or virus in culture; format: cell-based
# Description: as §2
# [14] = Hepatitis C virus, read-out: IC50 Value
# [15] = genotype 3a-2, no NS5B mutation
# [16] = Hepatitis C virus, 96 h, read-out: IC50 Value
# [17] = genotype 3a-1, no NS5B mutation
# [18] = genotype 1a, NS5B L159F and S282T
structure (smiles),measurement,setting,value
CNc1nc(N)nc2c1ncn2[C@@H]1OC(CO[P@@](=O)(N[C@@H](C)C(=O)OC(C)C)Oc2ccccc2)[C@@H](O)[C@@]1(C)F (some centres unmarked) [Compound 5-2],predominant metabolite observed in cultured human hepatocytes,human hepatocytes,β-D-2′-deoxy-2′-α-fluoro-2′-β-methyl-guanine triphosphate
same,IC50,[1]; [14],10.4 nM
same,Fold Change in IC50 from Sofosbuvir,[1]; [15],11.9
same,Fold Change in IC95 from Sofosbuvir,[1]; [15],14.3
same,IC95 Value,[1]; [15],56.5 nM
same,IC50,[2]; [14],9.9 nM
same,Fold Change in IC50 from Sofosbuvir,"[2]; genotype 4a, no NS5B mutation",7.5
same,Fold Change in IC95 from Sofosbuvir,"[2]; genotype 4a, no NS5B mutation",9.2
same,IC95 Value,"[2]; genotype 4a, no NS5B mutation",74.4 nM
same,IC50,[3]; [16],14 nM
same,Fold Change in IC50 from Sofosbuvir,"[3]; genotype 4d, no NS5B mutation",6.7
same,Fold Change in IC95 from Sofosbuvir,"[3]; genotype 4d, no NS5B mutation",12.8
same,IC95 Value,"[3]; genotype 4d, no NS5B mutation",79.9 nM
same,IC50,[4]; [14],6.3 nM
same,Fold Change in IC50 from Sofosbuvir,"[4]; genotype 2b, no NS5B mutation",7.1
same,Fold Change in IC95 from Sofosbuvir,"[4]; genotype 2b, no NS5B mutation",9.1
same,IC95 Value,"[4]; genotype 2b, no NS5B mutation",32.5 nM
same,IC50,[5]; [14],6.2 nM
same,Fold Change in IC50 from Sofosbuvir,"[5]; genotype 2a, no NS5B mutation",3.6
same,Fold Change in IC95 from Sofosbuvir,"[5]; genotype 2a, no NS5B mutation",4.3
same,IC95 Value,"[5]; genotype 2a, no NS5B mutation",45.4 nM
same,cross-resistance to L159F mutant,[6],"neither 25, 27 nor 5-2 compound showed any evidence of cross-resistance"
same,IC50,[6]; [14],13 nM
same,Fold Change in IC50 from Sofosbuvir,"[6]; genotype 1a, NS5B L159F",8.8
same,Fold Change in IC95 from Sofosbuvir,"[6]; genotype 1a, NS5B L159F",11.2
same,IC95 Value,"[6]; genotype 1a, NS5B L159F",95.3 nM
same,IC50,[7]; [14],10.5 nM
same,Fold Change in IC50 from Sofosbuvir,"[7]; genotype 1a, no NS5B mutation",6.0
same,Fold Change in IC95 from Sofosbuvir,"[7]; genotype 1a, no NS5B mutation",8.4
same,IC95 Value,"[7]; genotype 1a, no NS5B mutation",60.8 nM
same,cross-resistance to C316N mutant,[8],"neither 25, 27 nor 5-2 compound showed any evidence of cross-resistance"
same,IC50,[8]; [14],7.7 nM
same,Fold Change in IC50 from Sofosbuvir,"[8]; genotype 1b, NS5B C316N",9.6
same,Fold Change in IC95 from Sofosbuvir,"[8]; genotype 1b, NS5B C316N",11.1
same,IC95 Value,"[8]; genotype 1b, NS5B C316N",42.7 nM
same,IC50,[9]; [14],11.8 nM
same,Fold Change in IC50 from Sofosbuvir,[9]; [17],10.7
same,Fold Change in IC95 from Sofosbuvir,[9]; [17],11.6
same,IC95 Value,[9]; [17],59.3 nM
same,cross-resistance to L159F and S282T mutant,[10],"neither 25, 27 nor 5-2 compound showed any evidence of cross-resistance"
same,IC50,[10]; [14],38.7 nM
same,Fold Change in IC50 from Sofosbuvir,[10]; [18],41.9
same,Fold Change in IC95 from Sofosbuvir,[10]; [18],54.1
same,IC95 Value,[10]; [18],313.5 nM
same,IC50,[11]; [14],10.6 nM
same,Fold Change in IC50 from Sofosbuvir,"[11]; genotype 1b, no NS5B mutation",0.8
same,Fold Change in IC95 from Sofosbuvir,"[11]; genotype 1b, no NS5B mutation",8.9
same,IC95 Value,"[11]; genotype 1b, no NS5B mutation",72.4 nM
same,EC50,[12],4 nM
same,fold increase in activity (versus parent nucleoside),[13],"≥ 3,900"
same,EC95,"[13]; Hepatitis C virus, Huh-7 luc/neo ET cells, 72 hours, luciferase, read-out: HCV Replicon EC50/EC95: EC95",28 nM
same,EC50,"[13]; Hepatitis C virus, read-out: EC50 in a replicon assay",4 nM
same,Fold increase in activity compared to parent nucleoside,[13]; Table 7,">3,900"
same,IC50,"HCV wild type replicon; Hepatitis C virus, transient assay, 96-hr, read-out: IC50 Value",1.4 nM
same,Fold Change in IC50 from Sofosbuvir,HCV wild type replicon,26
same,Fold Change in IC95 from Sofosbuvir,HCV wild type replicon,22.2
same,IC95 Value,"HCV wild type replicon; transient assay, 96-hr",9.98 nM
same,cross-resistance to S282T variant,HCV S282T replicon,"neither 25, 27, nor 5-2 compounds showed any evidence of cross-resistance"
same,IC50,HCV S282T replicon; [16],2.8 nM
same,Fold Change in IC50 from Sofosbuvir,HCV S282T replicon; NS5B Mutation S282T,99.3
same,Fold Change in IC95 from Sofosbuvir,HCV S282T replicon; NS5B Mutation S282T,<48.5
same,IC95 Value,"HCV S282T replicon; NS5B Mutation S282T, transient assay, 96-hr",20.6 nM
